From patent publication US8629132B2, “Kinase inhibitors” (Genosco, priority 2009, dated 2014)

How the values were obtained:
RET = biological target: T1, RET (Homo sapiens, UniProt P07949); test: Kinase inhibition assay: RET; format: biochemical
T1 construct: truncated human FAK, RET, FLT3, JAK2, and LRRK2; purchased Carna Biosciences
T1 sequence (P07949 658-1114 limits assumed): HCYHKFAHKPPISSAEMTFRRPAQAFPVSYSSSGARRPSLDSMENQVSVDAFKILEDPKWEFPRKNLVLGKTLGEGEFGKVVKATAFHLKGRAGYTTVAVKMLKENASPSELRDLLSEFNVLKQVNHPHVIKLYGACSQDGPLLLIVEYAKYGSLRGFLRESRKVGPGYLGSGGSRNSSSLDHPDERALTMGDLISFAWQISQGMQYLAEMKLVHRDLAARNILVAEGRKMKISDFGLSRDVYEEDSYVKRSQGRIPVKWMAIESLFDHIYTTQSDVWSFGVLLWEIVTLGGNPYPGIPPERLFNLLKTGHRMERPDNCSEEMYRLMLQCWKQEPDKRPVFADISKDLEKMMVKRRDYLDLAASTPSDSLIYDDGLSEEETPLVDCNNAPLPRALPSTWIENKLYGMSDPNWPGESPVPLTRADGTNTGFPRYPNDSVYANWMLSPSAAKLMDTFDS
Procedure: (§1) Compounds of the present invention were tested for their capacity to inhibit a kinase panel which includes, but are not limited to, spleen tyrosine kinase (SYK), zeta-chain-associated protein kinase 70 (ZAP70), PTK2B protein tyrosine kinase 2 (PYK2), focal adhesion kinase (FAK), provirus integration of maloney kinase 1 (PIM1), rearranged during transfection kinase (RET), Fms-like tyrosine kinase 3 (FLT3), Janus kinase 2 (JAK2), and leucine-rich repeat kinase 2 (LRRK2).
(§2) Inhibition of SYK, ZAP70, PYK2, FAK, PIM1, RET, FLT3, JAK2 and LRRK2 Kinase Activity
(§3) Compounds of the invention were initially diluted to 10 mM in 100% DMSO (CALBIOCHEM™) for storage and made into kinase buffer solution to create a compound concentration ranging from 1 uM and 10 uM. Serial dilutions of compounds of the invention were dispensed into a 96-well plate (GREINER BIOSCIENCES™) at 6 μL each. Purified full-length human SYK, ZAP70, PIM1, PYK2 and truncated human FAK, RET, FLT3, JAK2, and LRRK2 (CARNA BIOSCIENCES™) were diluted in kinase buffer and added to the compound solutions and pre-incubated for 30 minutes at room temperature (1 hour for PYK2). […] The reaction mixture was incubated for 1 hour (2 hours for PYK2). Following the incubation, the stop solution made with EDTA, water, and Lance detection buffer ([…]™) was added (12μL each) to stop phosphorylation. […] The IC50 value of test compound was calculated at Gradpad Prism 5 unless specified otherwise.

LRRK2 = biological target: T2, LRRK2 (Homo sapiens, UniProt Q5S007); test: Kinase inhibition assay: LRRK2; format: biochemical
T2 construct: truncated human FAK, RET, FLT3, JAK2, and LRRK2; purchased Carna Biosciences
T2 sequence (Q5S007 970-2527 limits assumed): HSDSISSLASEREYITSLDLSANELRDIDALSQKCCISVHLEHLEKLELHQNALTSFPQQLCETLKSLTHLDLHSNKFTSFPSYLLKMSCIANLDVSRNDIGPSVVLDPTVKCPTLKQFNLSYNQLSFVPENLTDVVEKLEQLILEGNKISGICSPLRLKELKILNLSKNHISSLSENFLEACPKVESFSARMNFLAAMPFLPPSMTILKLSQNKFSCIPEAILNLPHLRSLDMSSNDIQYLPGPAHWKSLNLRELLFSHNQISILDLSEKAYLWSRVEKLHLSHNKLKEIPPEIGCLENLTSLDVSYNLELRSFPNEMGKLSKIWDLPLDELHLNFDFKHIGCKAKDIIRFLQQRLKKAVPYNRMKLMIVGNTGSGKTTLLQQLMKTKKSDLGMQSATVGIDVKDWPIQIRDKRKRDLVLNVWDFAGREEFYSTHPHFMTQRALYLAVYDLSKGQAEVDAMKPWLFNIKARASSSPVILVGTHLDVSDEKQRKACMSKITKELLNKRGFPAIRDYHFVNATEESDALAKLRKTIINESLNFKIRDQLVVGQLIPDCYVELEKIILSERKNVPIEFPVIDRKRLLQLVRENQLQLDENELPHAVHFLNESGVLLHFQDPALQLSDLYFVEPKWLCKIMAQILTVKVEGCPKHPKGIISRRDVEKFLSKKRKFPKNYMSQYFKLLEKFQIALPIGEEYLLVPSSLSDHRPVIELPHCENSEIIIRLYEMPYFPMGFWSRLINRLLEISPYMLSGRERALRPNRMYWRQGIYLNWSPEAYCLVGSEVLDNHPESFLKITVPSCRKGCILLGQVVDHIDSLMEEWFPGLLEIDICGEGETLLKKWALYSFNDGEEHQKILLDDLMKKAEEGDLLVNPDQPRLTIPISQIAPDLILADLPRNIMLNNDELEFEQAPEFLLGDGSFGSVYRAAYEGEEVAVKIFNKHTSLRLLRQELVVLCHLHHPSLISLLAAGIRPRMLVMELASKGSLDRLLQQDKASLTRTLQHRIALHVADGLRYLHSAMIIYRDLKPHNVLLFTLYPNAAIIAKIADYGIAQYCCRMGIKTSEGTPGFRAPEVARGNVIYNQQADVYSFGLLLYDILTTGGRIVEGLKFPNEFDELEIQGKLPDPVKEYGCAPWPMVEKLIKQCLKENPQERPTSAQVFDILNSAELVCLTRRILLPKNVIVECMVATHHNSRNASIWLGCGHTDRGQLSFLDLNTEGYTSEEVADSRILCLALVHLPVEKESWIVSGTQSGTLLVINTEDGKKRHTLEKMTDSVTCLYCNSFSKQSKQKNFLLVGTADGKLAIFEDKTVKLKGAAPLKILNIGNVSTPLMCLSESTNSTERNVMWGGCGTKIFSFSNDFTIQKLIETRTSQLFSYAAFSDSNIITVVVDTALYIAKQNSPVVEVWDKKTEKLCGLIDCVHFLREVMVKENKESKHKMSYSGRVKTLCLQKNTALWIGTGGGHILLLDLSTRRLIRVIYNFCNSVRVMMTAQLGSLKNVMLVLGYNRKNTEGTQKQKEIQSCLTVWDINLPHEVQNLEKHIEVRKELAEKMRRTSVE
Procedure: as §1, §2, §3

FLT3 = biological target: T3, FLT3 (Homo sapiens, UniProt P36888); test: Kinase inhibition assay: FLT3; format: biochemical
T3 construct: truncated human FAK, RET, FLT3, JAK2, and LRRK2; purchased Carna Biosciences
T3 sequence (P36888 564-993 limits assumed): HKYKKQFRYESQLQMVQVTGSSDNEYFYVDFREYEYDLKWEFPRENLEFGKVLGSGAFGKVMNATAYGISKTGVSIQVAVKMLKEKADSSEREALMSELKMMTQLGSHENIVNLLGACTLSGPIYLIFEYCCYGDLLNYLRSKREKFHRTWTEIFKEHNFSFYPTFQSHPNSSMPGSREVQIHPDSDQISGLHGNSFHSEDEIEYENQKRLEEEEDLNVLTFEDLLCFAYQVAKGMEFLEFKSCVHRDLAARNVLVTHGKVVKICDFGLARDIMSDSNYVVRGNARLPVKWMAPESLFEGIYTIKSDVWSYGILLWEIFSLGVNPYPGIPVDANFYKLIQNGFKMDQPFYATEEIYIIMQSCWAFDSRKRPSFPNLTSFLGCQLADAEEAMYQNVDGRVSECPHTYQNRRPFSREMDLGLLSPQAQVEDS
Procedure: as §1, §2, §3

MTC-TT = test: Cell viability assay: RET inhibition; format: cell-based, human; conditions: for IC50: Homo sapiens, 48 h, two days after drug treatment; for inhibition level compared with Vandetinib and Sunitinib: RET induced cancer cell line (MTC-TT)
Procedure: To address RET dependent cell viability, the medullary thyroid carcinoma cell line, MTC-TT representing MEN2A was utilized to test compounds of the present invention. MTC-TT were cultured at RPMI containing 15 bovine calf serum (Hyclon™ of Thermo™) and supplemented with 2 mM L-Glutamine The cells were grown at a density of 5×10^4 cells/100 μL/well in duplicate in 96-well plates for one day and treated with different concentrations of test compound. Cell viability for MTC-TT two days after drug treatment was measured by Cell Titer 96 Aqueous One Solution Reagent (Promega™) according to the manufacture instructions.

JAK2 = JAK2 (Homo sapiens, UniProt O60674); test: Kinase inhibition assay: JAK2; format: biochemical; design: truncated human FAK, RET, FLT3, JAK2, and LRRK2; purchased Carna Biosciences
JAK2, sequence (O60674 826-1132 limits assumed): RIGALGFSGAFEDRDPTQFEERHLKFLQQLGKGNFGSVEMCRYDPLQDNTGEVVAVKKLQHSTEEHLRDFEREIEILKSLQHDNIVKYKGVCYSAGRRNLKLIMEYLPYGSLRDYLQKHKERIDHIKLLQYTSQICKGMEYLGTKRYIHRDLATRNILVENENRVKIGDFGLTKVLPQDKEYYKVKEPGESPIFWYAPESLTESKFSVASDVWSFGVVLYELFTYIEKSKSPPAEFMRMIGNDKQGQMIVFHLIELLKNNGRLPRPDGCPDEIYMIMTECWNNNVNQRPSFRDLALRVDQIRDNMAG
Procedure: as §1, §2, §3

PIM1 = biological target: T4, PIM1 (Homo sapiens, UniProt P11309); test: Kinase inhibition assay: PIM1; format: biochemical; conditions: at 1 μM concentration
T4 construct: Purified full-length human SYK, ZAP70, PIM1, PYK2; purchased Carna Biosciences
T4 sequence (P11309 whole entry): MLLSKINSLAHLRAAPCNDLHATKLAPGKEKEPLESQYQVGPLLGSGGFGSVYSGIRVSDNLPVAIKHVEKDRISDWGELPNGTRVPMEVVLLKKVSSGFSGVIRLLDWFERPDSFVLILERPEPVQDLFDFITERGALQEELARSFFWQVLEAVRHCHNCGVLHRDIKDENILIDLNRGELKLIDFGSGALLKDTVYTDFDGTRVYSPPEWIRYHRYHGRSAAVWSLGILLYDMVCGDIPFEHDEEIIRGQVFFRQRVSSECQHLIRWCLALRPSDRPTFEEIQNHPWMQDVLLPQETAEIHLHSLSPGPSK
Procedure: as §1, §2
Compounds of the invention were initially diluted to 10 mM in 100% DMSO (CALBIOCHEM™) for storage and made into kinase buffer solution to create a compound concentration ranging from 1 uM and 10 uM. Serial dilutions of compounds of the invention were dispensed into a 96-well plate (GREINER BIOSCIENCES™) at 6 μL each. Purified full-length human SYK, ZAP70, PIM1, PYK2 and truncated human FAK, RET, FLT3, JAK2, and LRRK2 (CARNA BIOSCIENCES™) were diluted in kinase buffer and added to the compound solutions and pre-incubated for 30 minutes at room temperature (1 hour for PYK2). […] The reaction mixture was incubated for 1 hour (2 hours for PYK2). Following the incubation, the stop solution made with EDTA, water, and Lance detection buffer ([…]™) was added (12μL each) to stop phosphorylation. […] Substrate phosphorylation was a function of the 665 nm emission measured following the addition of the detection solution and 50 minutes of incubation. The IC50 value of test compound was calculated at Gradpad Prism 5 unless specified otherwise.

FAK = biological target: T5, FAK (Homo sapiens, UniProt Q05397); test: Kinase inhibition assay: FAK; format: biochemical; conditions: at 1 μM concentration
T5 construct: truncated human FAK, RET, FLT3, JAK2, and LRRK2; purchased Carna Biosciences
T5 sequence (Q05397 376-1052 limits assumed): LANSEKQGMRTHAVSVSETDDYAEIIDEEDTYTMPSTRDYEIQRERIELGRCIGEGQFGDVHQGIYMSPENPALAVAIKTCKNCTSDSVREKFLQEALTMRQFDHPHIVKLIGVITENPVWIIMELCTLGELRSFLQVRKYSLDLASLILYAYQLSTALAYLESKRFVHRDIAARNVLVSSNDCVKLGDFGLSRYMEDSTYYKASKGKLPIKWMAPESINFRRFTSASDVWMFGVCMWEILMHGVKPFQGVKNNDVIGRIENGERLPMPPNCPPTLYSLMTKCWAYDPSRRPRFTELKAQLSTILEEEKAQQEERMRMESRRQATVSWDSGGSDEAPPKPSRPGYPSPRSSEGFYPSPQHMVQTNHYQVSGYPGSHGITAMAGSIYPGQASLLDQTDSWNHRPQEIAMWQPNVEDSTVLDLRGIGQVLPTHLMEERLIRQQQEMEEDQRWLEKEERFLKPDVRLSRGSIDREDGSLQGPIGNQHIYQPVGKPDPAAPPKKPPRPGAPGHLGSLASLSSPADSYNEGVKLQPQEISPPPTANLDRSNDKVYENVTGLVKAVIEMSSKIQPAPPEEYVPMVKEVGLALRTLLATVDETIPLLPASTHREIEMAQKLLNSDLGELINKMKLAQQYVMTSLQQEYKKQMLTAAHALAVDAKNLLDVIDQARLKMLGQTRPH
Procedure: as §1, §2, §3

PYK2 = biological target: T6, PYK2 (Homo sapiens, UniProt Q14289); test: Kinase inhibition assay: PYK2; format: biochemical; conditions: at 1 μM concentration
T6 construct: Purified full-length human SYK, ZAP70, PIM1, PYK2; purchased Carna Biosciences
T6 sequence (Q14289 whole entry): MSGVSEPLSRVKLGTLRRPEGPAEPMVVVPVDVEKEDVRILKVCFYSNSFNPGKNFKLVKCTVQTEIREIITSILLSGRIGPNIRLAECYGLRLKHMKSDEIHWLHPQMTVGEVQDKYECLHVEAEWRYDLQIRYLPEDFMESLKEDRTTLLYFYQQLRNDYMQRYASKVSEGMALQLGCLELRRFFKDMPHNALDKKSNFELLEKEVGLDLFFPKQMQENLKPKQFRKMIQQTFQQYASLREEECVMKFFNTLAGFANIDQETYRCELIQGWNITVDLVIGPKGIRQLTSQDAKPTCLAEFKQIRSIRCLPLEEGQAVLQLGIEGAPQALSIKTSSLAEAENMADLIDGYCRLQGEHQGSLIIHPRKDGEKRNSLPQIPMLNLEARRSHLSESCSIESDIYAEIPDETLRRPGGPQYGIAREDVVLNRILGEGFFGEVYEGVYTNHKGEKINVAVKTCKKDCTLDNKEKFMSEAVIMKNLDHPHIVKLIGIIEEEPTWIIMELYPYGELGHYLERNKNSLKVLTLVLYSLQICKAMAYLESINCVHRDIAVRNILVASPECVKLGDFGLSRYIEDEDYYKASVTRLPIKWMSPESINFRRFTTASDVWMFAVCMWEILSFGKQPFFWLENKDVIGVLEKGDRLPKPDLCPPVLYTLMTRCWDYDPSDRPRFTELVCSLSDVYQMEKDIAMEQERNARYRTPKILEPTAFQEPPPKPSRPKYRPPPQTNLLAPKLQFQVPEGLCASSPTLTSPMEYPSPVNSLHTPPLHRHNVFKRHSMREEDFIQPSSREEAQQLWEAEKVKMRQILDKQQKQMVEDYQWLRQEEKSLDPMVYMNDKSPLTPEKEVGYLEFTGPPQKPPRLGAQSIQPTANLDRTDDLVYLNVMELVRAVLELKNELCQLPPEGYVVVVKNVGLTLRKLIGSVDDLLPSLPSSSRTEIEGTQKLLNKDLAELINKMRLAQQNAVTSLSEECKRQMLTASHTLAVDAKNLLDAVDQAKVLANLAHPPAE
Procedure: as §1, §2, §3

ZAP70 = biological target: T7, ZAP70 (Homo sapiens, UniProt P43403); test: Kinase inhibition assay: ZAP70; format: biochemical; conditions: at 1 μM concentration
T7 construct: Purified full-length human SYK, ZAP70, PIM1, PYK2; purchased Carna Biosciences
T7 sequence (P43403 1-619): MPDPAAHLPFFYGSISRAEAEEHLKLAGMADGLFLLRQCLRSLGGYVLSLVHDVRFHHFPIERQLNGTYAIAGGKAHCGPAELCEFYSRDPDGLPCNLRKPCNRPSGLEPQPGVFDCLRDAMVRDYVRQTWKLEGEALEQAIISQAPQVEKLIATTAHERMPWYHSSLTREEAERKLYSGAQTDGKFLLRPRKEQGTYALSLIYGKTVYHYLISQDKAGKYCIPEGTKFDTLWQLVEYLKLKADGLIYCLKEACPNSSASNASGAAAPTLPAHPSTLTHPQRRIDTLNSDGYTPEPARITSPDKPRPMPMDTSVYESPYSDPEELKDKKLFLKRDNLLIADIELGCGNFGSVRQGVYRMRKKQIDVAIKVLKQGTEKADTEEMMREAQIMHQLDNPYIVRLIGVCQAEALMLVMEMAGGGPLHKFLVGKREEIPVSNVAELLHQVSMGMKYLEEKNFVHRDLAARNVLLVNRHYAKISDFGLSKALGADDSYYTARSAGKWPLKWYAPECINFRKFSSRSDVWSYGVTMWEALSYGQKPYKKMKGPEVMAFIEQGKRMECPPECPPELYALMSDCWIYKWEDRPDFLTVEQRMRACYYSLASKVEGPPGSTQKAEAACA
Procedure: as §1, §2, §3

SYK = biological target: T8, SYK (Homo sapiens, UniProt P43405); test: Kinase inhibition assay: SYK; format: biochemical; conditions: at 1 μM concentration
T8 construct: Purified full-length human SYK, ZAP70, PIM1, PYK2; purchased Carna Biosciences
Procedure: as §1, §2, §3

Question: What does the source list for COc1cc(Nc2ncc(C)c(-n3cc(C)c(CN4CCN(CCO)CC4)c3)n2)cc(OC)c1OC [Compound 40, 2-(4-((4-methyl-1-(5-methyl-2-(3,4,5-trimethoxyphenylamino)pyrimidin-4-yl)-1H-pyrrol-3-yl)methyl)piperazin-1-yl)ethanol]?
Answer: IC50 (RET): 10.2 nM; IC50 (LRRK2): 275 nM; IC50 (FLT3): 0.17 nM; IC50 (MTC-TT): 78.4 nM; inhibition level compared with Vandetinib and Sunitinib (MTC-TT): greater than those exhibited by Vandetinib and Sunitinib; IC50 (JAK2): 3.7 nM

Question: For Cc1cc(C)cc(Nc2ncc(F)c(-n3cc(C(=O)N4CC[C@@H](O)C4)c(C)n3)n2)c1 [Compound 38, (R)-(1-(2-(3,5-dimethylphenylamino)-5-fluoropyrimidin-4-yl)-3-methyl-1H-pyrazol-4-yl)(3-hydroxypyrrolidin-1-yl)methanone], which inhibition at 1 µM (PIM1) is on record?
Answer: 3.7%

Question: And the inhibition at 1 µM (FAK)?
Answer: 17.7%

Question: And the inhibition at 1 µM (PYK2)?
Answer: 18%

Question: What about the inhibition at 1 µM (ZAP70) of the same compound?
Answer: 19.3%

Question: What about the inhibition at 1 µM (SYK) of the same compound?
Answer: 41.8%

Question: How did the inhibition at 1 µM (PIM1) turn out when Cc1cc(C)cc(Nc2ncc(F)c(-n3cc(C)c(CO)c3)n2)c1 [Compound 14, (1-(2-(3,5-dimethyl-phenylamino)-5-fluoro-pyrimidin-4-yl)-4-methyl-1H-pyrrol-3-yl)methanol] was run?
Answer: 21.9%

Question: And the inhibition at 1 µM (FAK)?
Answer: 36.9%

Question: What about the inhibition at 1 µM (PYK2) of the same compound?
Answer: 30.6%

Question: And the inhibition at 1 µM (ZAP70)?
Answer: 41.3%

Question: And the inhibition at 1 µM (SYK)?
Answer: 82.7%

Question: Which results are given for Cc1cn(-c2nc(Nc3cc(C)c(OCCO)c(C)c3)ncc2C)cc1CN(C)C [Compound 121, 2-(4-(4-(3-((dimethylamino)methyl)-4-methyl-1H-pyrrol-1-yl)-5-methylpyrimidin-2-ylamino)-2,6-dimethylphenoxy)ethanol]?
Answer: IC50 (RET): 2.3 nM; IC50 (FLT3): 1.7 nM; IC50 (MTC-TT): 34.6 nM; inhibition level compared with Vandetinib and Sunitinib (MTC-TT): greater than those exhibited by Vandetinib and Sunitinib; IC50 (JAK2): 2.5 nM
